# From paper PMC8206213, “An L-2-hydroxyglutarate biosensor based on specific transcriptional regulator LhgR” (Nature Communications, 2021)
# Values joined by “and” are separate entries in the source; they are usually repeats but may differ in a detail not shown here. Identical values can stand only once.
# Experiment: Dose-response of purified LHGFR for D-2-HG in buffer
# Format: binding
# Method: Purified L-2-HG biosensors and different compounds were diluted by 50 mM Tris-HCl buffer (pH 7.4), mixed together in a black 96-well plate at a volume ratio of 3:1, and the fluorescence intensities were measured using an EnSight microplate reader (PerkinElmer, USA) with excitation at 430 nm, emission at 485 nm (mTFP) and 528 nm (Venus). The dose-response curves were fitted by OriginPro 2016 software (OriginLab) according to the following formula:1 R=Rmax+Rmin−Rmax/1+([L-2-HG]/Kd)^p where R, Rmin, and Rmax refer to the emission ratio of Venus to mTFP, ratio in the absence of L-2-HG, and ratio at saturation with L-2-HG, respectively. The [L-2-HG], Kd, and p refer to the L-2-HG concentration, apparent dissociation constant, and Hill slope, respectively. Emission spectra were recorded at 430 nm excitation, in steps of 2 nm. Excitation spectra were recorded using emission at 550 nm, excitation from 380 to 535 nm in steps of 2 nm.
compound,measurement,setting,value
O=C(O)CC[C@@H](O)C(=O)O [D-2-HG],Emission ratio of 528/485,"2-HG concentration 0.01, Suppl. Fig. 9c",1.387 and 1.378 and 1.399
same,Emission ratio of 528/485,"2-HG concentration 0.01, Suppl. Fig. 9d",1.657 and 1.673 and 1.678
same,Emission ratio of 528/485,"2-HG concentration 0.1, Suppl. Fig. 9c",1.372 and 1.375 and 1.382
same,Emission ratio of 528/485,"2-HG concentration 0.1, Suppl. Fig. 9d",1.659 and 1.671 and 1.687
same,Emission ratio of 528/485,"2-HG concentration 0.2, Suppl. Fig. 9c",1.374 and 1.387 and 1.391
same,Emission ratio of 528/485,"2-HG concentration 0.2, Suppl. Fig. 9d",1.6456 and 1.673 and 1.682
same,Emission ratio of 528/485,"2-HG concentration 1, Suppl. Fig. 9c",1.374 and 1.373 and 1.392
same,Emission ratio of 528/485,"2-HG concentration 1, Suppl. Fig. 9d",1.662 and 1.681 and 1.683
same,Emission ratio of 528/485,"2-HG concentration 2, Suppl. Fig. 9c",1.367 and 1.388 and 1.39
same,Emission ratio of 528/485,"2-HG concentration 2, Suppl. Fig. 9d",1.647 and 1.673 and 1.676
same,Emission ratio of 528/485,"2-HG concentration 10, Suppl. Fig. 9c",1.374 and 1.398 and 1.395
same,Emission ratio of 528/485,"2-HG concentration 10, Suppl. Fig. 9d",1.662 and 1.69 and 1.707
same,Emission ratio of 528/485,"2-HG concentration 20, Suppl. Fig. 9c",1.362 and 1.378 and 1.389
same,Emission ratio of 528/485,"2-HG concentration 20, Suppl. Fig. 9d",1.665 and 1.705 and 1.723
same,Emission ratio of 528/485,"2-HG concentration 100, Suppl. Fig. 9c",1.381 and 1.406 and 1.415
same,Emission ratio of 528/485,"2-HG concentration 100, Suppl. Fig. 9d",1.815 and 1.829 and 1.846
same,Emission ratio of 528/485,"2-HG concentration 200, Suppl. Fig. 9c",1.404 and 1.432 and 1.433
same,Emission ratio of 528/485,"2-HG concentration 200, Suppl. Fig. 9d",1.932 and 1.978 and 1.981
same,Emission ratio of 528/485,"2-HG concentration 1000, Suppl. Fig. 9c",1.525 and 1.561 and 1.565
same,Emission ratio of 528/485,"2-HG concentration 1000, Suppl. Fig. 9d",2.255 and 2.2953 and 2.327
same,Emission ratio of 528/485,"2-HG concentration 2000, Suppl. Fig. 9c",1.698 and 1.693 and 1.687
same,Emission ratio of 528/485,"2-HG concentration 2000, Suppl. Fig. 9d",2.559 and 2.546 and 2.55
